Organism: Rattus norvegicus
Assay: DrugMatrix - Regimen: Daily Repeat
Assay type: toxicity, organism-based, Sprague-Dawley
Design: regimen Daily Repeat, gender Male, age 6-8 weeks
Details: in vivo, po, route oral GAVAGE, vehicle .5 % CMC; for ABSOLUTE BASOPHIL / ABSOLUTE EOSINOPHIL / ABSOLUTE LYMPHOCYTE / ABSOLUTE MONOCYTE / ABSOLUTE SEGMENTED NEUTROPHIL / BASOPHIL / EOSINOPHIL / ERYTHROCYTE COUNT / HEMATOCRIT / HEMOGLOBIN / LEUKOCYTE COUNT / LYMPHOCYTE / MEAN CORPUSCULAR HEMOGLOBIN / MEAN CORPUSCULAR HEMOGLOBIN CONCENTRATION / MEAN CORPUSCULAR VOLUME / MONOCYTE / NEUTROPHIL / NUCLEATED RED BLOOD CELLS / PLATELET COUNT: tissue Blood; for ALANINE AMINOTRANSFERASE / ALBUMIN / ALKALINE PHOSPHATASE / ASPARTATE AMINOTRANSFERASE / BLOOD UREA NITROGEN / CARBON DIOXIDE / CHLORIDE / CHOLESTEROL / CREATINE PHOSPHOKINASE / CREATININE / GLUCOSE / LACTATE DEHYDROGENASE / LIPASE / PHOSPHORUS / POTASSIUM / SODIUM / TOTAL BILIRUBIN / TOTAL PROTEIN / URIC ACID: tissue Plasma
[1] = 0.1 mg/kg, 120 h, dose level Low, time 5 day
[2] = […], 72 h, dose 1.1 mg/Kg, dose level High, time 3 day
[3] = […], 120 h, dose 1.1 mg/Kg, dose level High, time 5 day

CCCN1C[C@H](CSC)C[C@@H]2c3cccc4[nH]cc(c34)C[C@H]21 [PERGOLIDE]
ABSOLUTE BASOPHIL [1]: 0 CELLS/uL | ABSOLUTE EOSINOPHIL [1]: 175 CELLS/uL | ABSOLUTE LYMPHOCYTE [1]: 12836.67 CELLS/uL | ABSOLUTE MONOCYTE [1]: 191.67 CELLS/uL | ABSOLUTE SEGMENTED NEUTROPHIL [1]: 1130 CELLS/uL | BASOPHIL [1]: 0% | EOSINOPHIL [1]: 1% | ERYTHROCYTE COUNT [1]: 6.04 x10E6/uL | HEMATOCRIT [1]: 38.1% | HEMOGLOBIN [1]: 14.47 G/DL | LEUKOCYTE COUNT [1]: 14.33 x10E3/uL | LYMPHOCYTE [1]: 89.67% | MEAN CORPUSCULAR HEMOGLOBIN [1]: 24.1 pg | MEAN CORPUSCULAR HEMOGLOBIN CONCENTRATION [1]: 38.07 G/DL | MEAN CORPUSCULAR VOLUME [1]: 63.27 fL | MONOCYTE [1]: 1.33% | NEUTROPHIL [1]: 8% | NUCLEATED RED BLOOD CELLS [1]: 0 /100WBC | PLATELET COUNT [1]: 1209 x10E3/uL | ALANINE AMINOTRANSFERASE [1]: 50.33 u/L | ALBUMIN [1]: 4.13 G/DL | ALKALINE PHOSPHATASE [1]: 348 u/L | ASPARTATE AMINOTRANSFERASE [1]: 111.67 u/L | BLOOD UREA NITROGEN [1]: 19.33 mg/dL | CARBON DIOXIDE [1]: 24 mmol/L | CHLORIDE [1]: 107 MEQ/L | CHOLESTEROL [1]: 76.67 mg/dL | CREATINE PHOSPHOKINASE [1]: 1319 u/L | CREATININE [1]: 0.21 mg/dL | GLUCOSE [1]: 156 mg/dL | LACTATE DEHYDROGENASE [1]: 398.67 u/L | LIPASE [1]: 10 u/L | PHOSPHORUS [1]: 13.17 mg/dL | POTASSIUM [1]: 6.18 MEQ/L | SODIUM [1]: 145.93 MEQ/L | TOTAL BILIRUBIN [1]: 0.2 mg/dL | TOTAL PROTEIN [1]: 6.23 G/DL | URIC ACID [1]: 2.13 mg/dL | ABSOLUTE BASOPHIL [2]: 0 CELLS/uL | ABSOLUTE EOSINOPHIL [2]: 0 CELLS/uL | ABSOLUTE LYMPHOCYTE [2]: 11487 CELLS/uL | ABSOLUTE MONOCYTE [2]: 388 CELLS/uL | ABSOLUTE SEGMENTED NEUTROPHIL [2]: 1058.33 CELLS/uL | BASOPHIL [2]: 0% | EOSINOPHIL [2]: 0% | ERYTHROCYTE COUNT [2]: 5.69 x10E6/uL | HEMATOCRIT [2]: 36.2% | HEMOGLOBIN [2]: 13.43 G/DL | LEUKOCYTE COUNT [2]: 12.93 x10E3/uL | LYMPHOCYTE [2]: 88.67% | MEAN CORPUSCULAR HEMOGLOBIN [2]: 23.63 pg | MEAN CORPUSCULAR HEMOGLOBIN CONCENTRATION [2]: 37.13 G/DL | MEAN CORPUSCULAR VOLUME [2]: 63.6 fL | MONOCYTE [2]: 3% | NEUTROPHIL [2]: 8.33% | NUCLEATED RED BLOOD CELLS [2]: 0 /100WBC | PLATELET COUNT [2]: 1255.67 x10E3/uL | ALANINE AMINOTRANSFERASE [2]: 71 u/L | ALBUMIN [2]: 4.2 G/DL | ALKALINE PHOSPHATASE [2]: 385.33 u/L | ASPARTATE AMINOTRANSFERASE [2]: 116 u/L | BLOOD UREA NITROGEN [2]: 16 mg/dL | CARBON DIOXIDE [2]: 24.67 mmol/L | CHLORIDE [2]: 104.67 MEQ/L | CHOLESTEROL [2]: 68 mg/dL | CREATINE PHOSPHOKINASE [2]: 406 u/L | CREATININE [2]: 0.19 mg/dL | GLUCOSE [2]: 157 mg/dL | LACTATE DEHYDROGENASE [2]: 402.67 u/L | LIPASE [2]: 10 u/L | PHOSPHORUS [2]: 12.03 mg/dL | POTASSIUM [2]: 6.59 MEQ/L | SODIUM [2]: 145.53 MEQ/L | TOTAL BILIRUBIN [2]: 0.2 mg/dL | TOTAL PROTEIN [2]: 5.67 G/DL | URIC ACID [2]: 1.73 mg/dL | ABSOLUTE BASOPHIL [3]: 0 CELLS/uL | ABSOLUTE EOSINOPHIL [3]: 64.33 CELLS/uL | ABSOLUTE LYMPHOCYTE [3]: 14339 CELLS/uL | ABSOLUTE MONOCYTE [3]: 275 CELLS/uL | ABSOLUTE SEGMENTED NEUTROPHIL [3]: 888.33 CELLS/uL | BASOPHIL [3]: 0% | EOSINOPHIL [3]: 0.33% | ERYTHROCYTE COUNT [3]: 6.31 x10E6/uL | HEMATOCRIT [3]: 40.47% | HEMOGLOBIN [3]: 15.03 G/DL | LEUKOCYTE COUNT [3]: 15.57 x10E3/uL | LYMPHOCYTE [3]: 92.33% | MEAN CORPUSCULAR HEMOGLOBIN [3]: 23.77 pg | MEAN CORPUSCULAR HEMOGLOBIN CONCENTRATION [3]: 37.23 G/DL | MEAN CORPUSCULAR VOLUME [3]: 63.93 fL | MONOCYTE [3]: 1.67% | NEUTROPHIL [3]: 5.67% | NUCLEATED RED BLOOD CELLS [3]: 0 /100WBC | PLATELET COUNT [3]: 990.67 x10E3/uL | ALANINE AMINOTRANSFERASE [3]: 44.33 u/L | ALBUMIN [3]: 4.53 G/DL | ALKALINE PHOSPHATASE [3]: 385.67 u/L | ASPARTATE AMINOTRANSFERASE [3]: 82 u/L | BLOOD UREA NITROGEN [3]: 17.33 mg/dL | CARBON DIOXIDE [3]: 27.33 mmol/L | CHLORIDE [3]: 108.33 MEQ/L | CHOLESTEROL [3]: 76.67 mg/dL | CREATINE PHOSPHOKINASE [3]: 501.67 u/L | CREATININE [3]: 0.22 mg/dL | GLUCOSE [3]: 154 mg/dL | LACTATE DEHYDROGENASE [3]: 206.33 u/L | LIPASE [3]: 9.33 u/L | PHOSPHORUS [3]: 11.87 mg/dL | POTASSIUM [3]: 6.29 MEQ/L | SODIUM [3]: 147.9 MEQ/L | TOTAL BILIRUBIN [3]: 0.23 mg/dL | TOTAL PROTEIN [3]: 6.37 G/DL | URIC ACID [3]: 1.63 mg/dL

From ChEMBL document CHEMBL3885881, “DrugMatrix”
